Source: patent US20020019336A1, “Sustained release drug compositions” (priority 2000, published 2002)

System: neovascularization
Experiment: neovascularization after subcutaneous injection or implantation in rats
Assay type: in vivo
Settings: back subcutaneous tissue, seven days after administration, 1 μg bFGF
Method: The compositions listed in Table 1 below were generated essentially according to Example 9, with modifications as indicated.
All compositions, including controls, were injected or implanted into the back subcutaneous tissue of rats. It was known that bFGF promotes neovascularization. Seven days after administration, each rat was evaluated for neovascularization at the area peripheral to the site of injection or implantation.
To distinguish newly synthesized blood vessels from pre-existing ones, lipid microspheres were injected into […] just superficial to the pre-existing capillary bed early in the experiment (at day 0). At the end of the experiment, the neovascular capillaries, if any, would reside superficial to the microspheres. Thus, new capillaries were easily identified by seeing whether there was vascularization above (superficial to) the microspheres at the end of the experiment.

basic fibroblast growth factor [bFGF alone]
neovascularization at area peripheral to site of injection or implantation: no neovascularization
